From patent publication US4808620A, “Pyrazolopyridine compounds, their preparation and use as platelet aggregation inhibitors” (Yoshitomi Pharmaceutical Industries, Ltd., priority 1986, dated 1989)
Converted amounts (≈) assume the structure as drawn.

Key:
[1] = test system: stretch symptom induced by phenylquinone; assay: Analgesic Activity (phenylquinone-induced stretch symptom, method of Hendershot et al); format: in vivo, Male ddY mice; conditions: Mus musculus, po; mice, p.o., 1 h before 0.02% phenylquinone i.p., stretch frequency for 20 min; read-out: ED50, Pharmacological Experiment (1), analgesic activity
Protocol: The experiment was performed according to the method of Hendershot et al described in J. Pharmacol. Exp. Ther., vol. 125, P. 237 (1959). Male ddY mice weighing 18-25 g were used in groups of 6-18. One hour after the oral administration of test compound solution (10 ml/kg), 10 ml/kg of 0.02% aqueous phenylquinone solution was intraperitoneally administered to the animal. The frequency of stretch symptom thus induced measured for 20 minutes. The inhibitory rate was determined in comparison with the control group and the 50% effective dose (ED50, mg/kg) was caluculated according to the linear regression method.

[2] = test system: Acute Inflammation (carrageenin); assay: Effect on Acute Inflammation (carrageenin hind paw, method of Winter et al); format: in vivo, Male Donryu rats; conditions: Rattus norvegicus, po; rats, p.o., 1 h before 1% carrageenin, foot volume 3 h later; read-out: ED50, Pharmacological Experiment (2), acute inflammation
Protocol: Effect on Acute Inflammation
The experiment was performed according to the method of Winter et al described in Proc. Soc. Exp. Biol. Med., vol. 111, p. 544 (1962). Male Donryu rats weighing about 140 g which was fastened for 18 hours were used in groups of five animals. Test compound solution was orally administered and one hour later, 0.05 ml of saline solution containing 1% carrageenin was injected into the right hind paw. Three hours later, the foot volume was measured by the water displacement method. The rate of increase against the foot volume before the injection of carrageenin was calculated, and the inhibitory rate was determined as compared with the control group. The 50% effective dose (ED50, mg/kg) was determined by the linear regression method.

[3] = test system: Chronic Inflammation (adjuvant arthritis); assay: Effect on Chronic Inflammation (adjuvant arthritis, method of Newbould); format: in vivo, male Lewis rats; conditions: Rattus norvegicus, po; adjuvant arthritis rats, p.o. once a day from 15th to 24th day, decrease of foot volume vs 15th day; read-out: MED, Pharmacological Experiment (3), chronic inflammation
Protocol: Effect on Chronic Inflammation The experiment was performed by employing 10-week old male Lewis rats according to the method of Newbould described in Brit. J. Pharmacol., vol. 21, p. 127 (1963). Dead tubercle bacilli ([…] H5 type) suspended in liquid paraffin (0.5 mg/0.1 ml) was inoculated as adjuvant into the skin at the base of tail. Animals with arthritis were chosen on the 15th day and divided into groups of seven. Test compound solution (5 ml/kg) was orally administered once a day from 15th day of 24th day consecutively. The rate of change of the foot volume on the 24th day against the foot volume on the 15th day was calculated, and the inhibitory rate was determined as compared with the control group. The minimun effective dose (MED, mg/kg) was obtained based on the dose indicating the decrease of foot volume than the foot volume on the 15th day.

[4] = test system: Platelet Aggregation induced by Arachidonic Acid; assay: Effect on the Platelet Aggregation induced by Arachidonic Acid; format: cell-based, Male Hartley guinea pigs; conditions: Cavia porcellus, guinea pig PRP, 37° C., arachidonic acid 5×10^-4 M, maximum aggregation value, read-out: IC50, Pharmacological Experiment (4), platelet aggregation
Protocol: Effect on the Platelet Aggregation induced by Arachidonic Acid
Male Hartley guinea pigs weighing 400-500 g were subjected to the abdominal operation under etherization. The citrated blood (9 volumes of blood and one volume of 3.8% sodium citrate solution) was collected from the abdominal aorta. Immediately, the blood was centrifuged at 150×g for 3 minutes to obtained platelet-rich plasma (PRP) as a supernatant. The remaining blood was centrifuged at 1400×g for 10 minutes to obtain platelet-poor plasma (PPP) as a supernatant. The number of platelet in PRP was adjusted to 4-6×10^5 platelets/mm^3 by adding PPP thereto The platelet aggregation was measured by using a platelet aggregometer according to the method of Born et al described in J. Physiol., vol. 168, p. 178 (1963). Test compound solution was added to PRP under stirring at 1500 rpm at 37° C., and two minutes later arachidonic acid (final concentration: 5×10^-4 M) is added thereto. The change of transmittance was recorded consecutively. The transmittance was adjusted to 0 and 100% with PRP and PPP, respectively. The inhibitory rate was calculated against the control group by using the maximum aggregation value as an index, and 50% inhibitory concentration(IC50, μg/ml) was determined by the linear regression method.

Cn1nc(-c2cc(C(C)(C)C)c(O)c(C(C)(C)C)c2)c2cccnc21 [Compound A, 3-(3,5-di-tertiarybutyl-4-hydroxyphenyl)-1-methyl-1H-pyrazolo[3,4-b]pyridine]
ED50 [1]: 9.5 mg/kg | ED50 [2]: 70 mg/kg | minimal effective dose [3]: 0.3 mg/kg | IC50 [4]: 1.05 µg/mL (≈ 3.11 µM)

CC(C)(C)c1cc(-c2nn(CCO)c3ncccc23)cc(C(C)(C)C)c1O [Compound B, 3-(3,5-di-tertiarybutyl-4-hydroxyphenyl)-1-(2-hydroxyethyl)-1H-pyrazolo [3,4-b]pyridine]
ED50 [1]: 19 mg/kg | ED50 [2]: 44 mg/kg | minimal effective dose [3]: 3 mg/kg | IC50 [4]: 0.09 µg/mL (≈ 0.245 µM)

CCC(=O)OCCn1nc(-c2cc(C(C)(C)C)c(O)c(C(C)(C)C)c2)c2cccnc21 [Compound C, 3-(3,5-di-tertiarybutyl-4-hydroxyphenyl)-1-(2"propionyloxyethyl)-1H-pyrazolo [3,4-]pyridine]
ED50 [1]: 1.1 mg/kg | ED50 [2]: 8 mg/kg | minimal effective dose [3]: 0.3 mg/kg | IC50 [4]: 0.95 µg/mL (≈ 2.24 µM)

CCOC(=O)CCn1nc(-c2cc(C(C)(C)C)c(O)c(C(C)(C)C)c2)c2cccnc21 [Compound D, 3-(3,5-di-tertiarybutyl-4-hydroxyphenyl)-1-(2-ethoxycarbonylethyl)-1H-pyrazolo [3,4-b]pyridine]
ED50 [1]: 0.56 mg/kg | ED50 [2]: 8.3 mg/kg | minimal effective dose [3]: 1 mg/kg | IC50 [4]: 0.12 µg/mL (≈ 0.283 µM)

CC(=O)OCCn1nc(-c2cc(C(C)(C)C)c(O)c(C(C)(C)C)c2)c2cccnc21 [Compound E, 1-(acetoxyethyl)-3-(3,5-di-tertiarybutyl-4-hydroxyphenyl)-1H-pyrazolo[3,4-b]pyridine]
ED50 [1]: 0.35 mg/kg | ED50 [2]: 14 mg/kg | minimal effective dose [3]: 0.3 mg/kg | IC50 [4]: 0.9 µg/mL (≈ 2.2 µM)
